For experiment [1], the system named is Visna virus. The experiment is described as follows: Visna virus test in infected cell culture (cytopathic effect). Format: cell-based. As to conditions: sheep fibroblast cells infected with Visna virus, MOI approx. 0.05, 7 days at 37° C., non-cytotoxic concentrations. As for the experimental part:
This was shown by way of example for the Visna virus.
The Visna virus and the HIV virus both belong to the retrovirus subfamily of lentiviruses.
In cell cultures which are infected with Visna virus, pronounced, virus-induced, cytopathic effects appear 5 to 10 days after infection. By treating the infected cell cultures with compounds according to the invention, it was possible to prevent the appearance of these cytopathic effects.
The Visna virus test was carried out according to the method of O. Narayan et al., Journal of Infectious Diseases 135, 5, 1977, 800-806. For this, a compound according to the invention was diluted to non-cytotoxic concentrations in the culture medium in 96-well microtiter plates. Sheep fibroblast cells (5×10^4 cells per well) in production medium were then added to each well. Each well then received 15 μl of a Visna virus solution having a titer of approx. 2.5×10^4 TCID50 (TCID=tissue culture infections dose). This virus dose corresponds to a MOI (multiplicity of infection) of approx. 0.05.
Under these infection conditions, a virus-induced, cytopathic effect resulted between day 5 and day 10 in an infection control without substance. The infected and treated cells and the control cells were incubated for 7 days at 37° C. and 5% CO2. […]

The target in experiment [2] is T1, HIV protease (Human immunodeficiency virus type 1 group M subtype B, UniProt P04585).
T1 construct: purified HIV protease was incubated with synthetic peptide
The experiment is described as follows: HIV-specific protease enzyme test (RP-HPLC analysis of synthetic peptide cleavage). The following applies: purified HIV protease incubated with synthetic peptide imitating a Gag-precursor cleavage site; 50% inhibition of protease activity. Format: biochemical. On the procedure: The compounds of the general formula (I) have extraordinarily strong action against retroviruses. This was proven by experiments using the HIV-specific protease enzyme test.
The result of the example below was obtained using the HIV-test system described in the following reference [cf. Hansen, J., Billich, S., Schulze, T., Sukrow, S. and Molling, K. (1988), EMBO Journal, Vol. 7, No. 6, pp. 1785-1791]: purified HIV protease was incubated with synthetic peptide which imitates a cleavage site in the Gag-precursor protein and represents an in vivo cleavage site of HIV protease. The resulting cleavage products of the synthetic peptide were analyzed by reverse-phase high performance liquid chromatography (RP-HPLC). The IC50 value relates to the substance concentration which causes 50% inhibition of protease activity under the abovementioned test conditions.

This note sets out measurements from patent US5162538A, “Antiviral new peptides” (Bayer Aktiengesellschaft, priority 1989, dated 1992).

“Nα-{Nδ-[1-(1-oxo)ethyl-[1-(5-S-amino-6-cyclohexyl-4-S-hydroxy-2-(1-methyl)ethylhexanoyl)]]-S-isoleucinyl}-2-pyridylmethylamide [Example I]”: the “protection from virus-induced cytopathic effect / cell destruction” value in experiment [1] was “protected the cells infected with Visna virus from the virus-induced cell destruction”. In experiment [2], half-maximal inhibition (IC50) was put at 0.5 nM.
